Experimental findings from US9790253B2, “OSW-1 analogs and conjugates, and uses thereof” (priority 2011, dated 2017) are described below.

Entries after “also recorded” stand apart in the source; their conditions may differ.

For assay [1], the target named is T1, ORP4L-myc-his (Homo sapiens, UniProt Q969R2).
T1 sequence (Q969R2 1-916): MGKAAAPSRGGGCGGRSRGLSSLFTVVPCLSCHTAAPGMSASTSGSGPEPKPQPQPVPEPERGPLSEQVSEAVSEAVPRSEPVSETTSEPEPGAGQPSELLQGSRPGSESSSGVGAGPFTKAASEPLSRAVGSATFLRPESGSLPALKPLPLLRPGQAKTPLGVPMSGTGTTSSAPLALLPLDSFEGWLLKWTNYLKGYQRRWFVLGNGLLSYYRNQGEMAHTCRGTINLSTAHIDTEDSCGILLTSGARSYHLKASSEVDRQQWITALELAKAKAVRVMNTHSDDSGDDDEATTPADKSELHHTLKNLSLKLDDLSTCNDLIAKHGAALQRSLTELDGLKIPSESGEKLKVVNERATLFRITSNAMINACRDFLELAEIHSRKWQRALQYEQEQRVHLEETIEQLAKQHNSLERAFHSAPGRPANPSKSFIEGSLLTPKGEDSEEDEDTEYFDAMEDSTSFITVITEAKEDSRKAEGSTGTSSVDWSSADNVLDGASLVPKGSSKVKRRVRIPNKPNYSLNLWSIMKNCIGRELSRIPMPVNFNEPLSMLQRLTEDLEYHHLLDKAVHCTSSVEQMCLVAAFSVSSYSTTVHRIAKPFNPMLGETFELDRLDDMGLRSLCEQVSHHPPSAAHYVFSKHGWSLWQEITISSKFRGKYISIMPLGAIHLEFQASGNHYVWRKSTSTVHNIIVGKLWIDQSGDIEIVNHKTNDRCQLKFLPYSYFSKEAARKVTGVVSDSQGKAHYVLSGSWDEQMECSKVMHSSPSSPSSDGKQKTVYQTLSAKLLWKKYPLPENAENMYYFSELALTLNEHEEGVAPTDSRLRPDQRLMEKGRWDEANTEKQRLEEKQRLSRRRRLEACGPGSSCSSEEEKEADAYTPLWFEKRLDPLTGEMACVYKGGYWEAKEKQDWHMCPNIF
The experiment in a line: [3H]-25-hydroxycholesterol charcoal-dextran binding assay with ORP4L-myc-his. Particulars: for Ki: read-out: [^3H]-25-OHC K1 (nM) ORP4L-myc-his, competition with 20 nM [3H]-25-OHC, HEK-293T S100 lysate, 4° C., 16 h; for fold lower affinity for ORP4L than for OSBP1: ratio of Ki values.
Description: [^3H]-25-Hydroxycholesterol charcoal-dextran binding assay. […] These vectors were transfected into HEK-293T cells using Lipofectamine™2000 (Invitrogen), and 48 h after transfection, on-plate lysis of the transfected cells with the M-Per®/HALT™ with EDTA (ThermoScientific) reagent was performed, followed by ultracentrifugation at 100,000 g. The S100 lysate was diluted to 0.2 mg/mL, aliquoted and stored at −80° C. until use. The HEK-293T OSBP1-, ORP4L- or lacZ-myc-his lysate was incubated with [^3H]-25-hydroxycholesterol at 4° C. for 16 h in 96-well plates. After incubation, charcoal/dextran (C/D) was added to the wells for 30 min of shaking at RT, followed by centrifugation for 15 min at 1900 g to pellet the C/D. The C/D-cleared lysate was added to MicroScint™-20 (PerkinElmer) scintillation fluid, and the remaining protein-bound radiolabel was quantified using a TopCount™ scintillation counter. [^3H]-25-hydroxycholesterol binding curves and competition curves were repeated at least three times.
Lysates were thawed on ice, with brief periods of hand warming. Both the ^3H-25-OHC direct binding assays and the ^3H-25-OHC competition binding assays were set up similarly, with a large stock of binding assay lysate being prepared, then 73.5 μL of the binding assay mixture dispensed using a multi-channel pipettor into “V”-shaped 96-well plates. For the ^3H-25-OHC direct binding assay, 1.5 μL of ^3H-25-OHC and ^3H-25-OHC/40×25-OHC added to the wells in dilutions in 100% ethanol. For the ^3H-25-OHC competition binding assays, ^3H-25-OHC was added to the large stock of binding assay lysate to a final concentration of 20 nM. This ^3H-25-OHC-containing binding lysate was then dispensed using a multi-channel pipettor into the 96-well plates. Then, 1.5 μL of a serial dilution of the inhibitors in either 100% ethanol (25-OHC) or DMSO (the ORPphilins) was added to each well.
The binding lysate used in each well of the 96-well plate consisted of 60 μL of 0.2 mg/mL S100 lysate, 7.5 μL 20% PVA, and 5.6 μL 2M KCl. For ^3H-25-OHC binding curve experiments, 0.4 μL of buffer was then added (total volume per well: 73.5 μL). For the ^3H-25-OHC inhibition competition assays, 0.11 μL of 13.2 μM ^3H-25-OHC and 0.29 μL binding buffer was added for each well (total volume per well: 73.5 μL).
Binding assays were incubated, standing, for 16 h at 4° C. Then 30 μL of the rt C/D solution was multichannel pipetted into new “V’ shaped 96-well plates, and 60 μL of the binding lysate mixture was then added. The plates were briefly, lightly vortexed (˜10 sec), 10 and then rocked at 250 rpm for 30 min at rt. The plates were then centrifuged at 1900 g for 15 min at 4° C. in Microplate Carriers (Sorvall cat. #75006449S) in a Sorvall Legend RT centrifuge. Carefully so as to not disturb the C/D pellet, 30 μL of the supernatant was transferred to 170 μL of Microscint-20 in the OptiPlates. The plates were sealed with the TopSealA-Films, and vigorously vortexed (max speed, >1 min). ^3H-25-OHC detection in the wells was then performed using a TopCount Scintillation detector, counting each well for 2 min. Data was graphed and analyzed using GraphPad PrismS, using non-linear regression to determine KD and K1 values.
Binding experiments were performed at 4° C. for 16 h. Unbound sterol was removed using dextran-coated charcoal, and protein-bound sterol left in the supernatant was quantified by scintillation counting. Ki-values were determined as mean±s.d. from at least three independent experiments.

Assay [2] has as its target T2, OSBP1 protein levels in HCT-116 cells (Homo sapiens, UniProt P22059).
T2 construct: endogenous in cells; host or cells: HCT-116
T2 sequence (P22059 1-807): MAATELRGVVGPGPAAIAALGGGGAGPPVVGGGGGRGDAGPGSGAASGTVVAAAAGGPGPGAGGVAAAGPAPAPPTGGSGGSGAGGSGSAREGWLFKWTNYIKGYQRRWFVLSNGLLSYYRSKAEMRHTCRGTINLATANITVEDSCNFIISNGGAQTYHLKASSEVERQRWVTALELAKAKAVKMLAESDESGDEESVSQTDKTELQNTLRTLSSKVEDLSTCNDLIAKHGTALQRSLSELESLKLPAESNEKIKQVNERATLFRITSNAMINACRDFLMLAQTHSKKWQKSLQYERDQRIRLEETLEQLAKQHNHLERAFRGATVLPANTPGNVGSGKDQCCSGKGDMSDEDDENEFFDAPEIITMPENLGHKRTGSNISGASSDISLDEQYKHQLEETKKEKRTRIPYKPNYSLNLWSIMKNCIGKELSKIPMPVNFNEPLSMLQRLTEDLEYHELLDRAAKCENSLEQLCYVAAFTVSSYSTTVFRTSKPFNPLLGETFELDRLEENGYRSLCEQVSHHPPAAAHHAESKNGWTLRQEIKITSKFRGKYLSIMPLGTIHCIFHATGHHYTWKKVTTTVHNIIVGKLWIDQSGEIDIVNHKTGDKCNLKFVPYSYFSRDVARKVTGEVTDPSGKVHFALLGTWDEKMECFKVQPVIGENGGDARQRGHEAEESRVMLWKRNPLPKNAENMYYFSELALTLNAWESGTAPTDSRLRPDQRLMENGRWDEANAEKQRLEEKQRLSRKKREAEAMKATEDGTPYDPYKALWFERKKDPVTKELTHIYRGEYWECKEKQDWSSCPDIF
Nature of the assay: OSBP1 protein levels by western blotting. It is filed as cell-based. As to conditions: for reduction in OSBP1 protein levels: 24 h. As for the experimental part: A possible explanation for this observation was that treatment with 1 and 2 caused a decrease in OSBP1 levels. Treatment of HCT-116 cells with vehicle (DMSO) or 25-OHC (10 μM) had no effect on OSBP1 levels, as assessed by western blotting (FIG. 6A). However, treatment with 1 or 2 induced a dramatic, time-dependent reduction of OSBP1 levels (FIG. 6A). For example, 50 nM of 1 or 10 nM of 2 caused an approximately 75% reduction in OSBP1 protein levels at 24 h in HCT-116 cells (FIG. 6A), with a similar effect recorded in A549 cells. […] OSBP1 levels were determined using both an antibody recognizing the far N-terminus of OSBP1 (FIG. 6) and also an antibody recognizing the C-terminus of OSBP1.
One possible explanation for the reduction in OSBP1 levels upon treatment with 1 and 2 was proteasome-dependent degradation. To determine whether degradation of OSBP1 was proteasome dependent, proteasome inhibitors MG-132 or lactacystin were co-administered with 1 and 2. […] Similar results were obtained in A549 cells.

Assay [3] concerns NPC1^−/− (M12) CHO cells. Nature of the assay: Antiproliferative activity in NPC1-/- (M12) CHO cells. It counts as cell-based.
Assay [4] concerns HeLa cells overexpressing OSBP1(V582M). The experiment in a line: Overexpression-viability assay, OSBP1(V582M)-myc-his. It is filed as cell-based. As to conditions: 48 h. The method, then:
Overexpression-viability assays with wild-type and mutant OSBP/ORP4L constructs were carried out by transfecting HeLa cells with the appropriate plasmids using Lipofectamine™ LTX with PLUS™ reagent (Invitrogen) as instructed, and after 8 h of transfection, the cells were re-plated for the cell viability assay, performed as described above. Expression levels were evaluated by immunoblotting at the time of dosing.
For additional support that OSBP1 and ORP4L are targets of the ORPphilins, dominant drug-resistant alleles of these proteins were sought. 15 OSBP1 residues inside and outside the region of the protein previously reported to mediate sterol binding were mutated (FIG. 4C). The growth inhibition induced by the ORPphilins was determined in HeLa cells overexpressing either wild-type or mutant OSBP1-myc-his proteins. Expression of wt OSBP1-myc-his and mutant OSBP1-myc-his were nearly equivalent as measured by western blot.
The same mutant caused a 3.9-fold reduction in the antiproliferative activity of OSW-1 (2) (FIG. 4E2) and a 2.7-fold reduction in the activity of schweinfurthin A (4a) (FIG. 4E3). […] The antiproliferative activity of taxol was unaffected by expression of these two OSBP1 mutant proteins (FIGS. 4E4, 4E8).

For orientation: Kd means the free concentration of one partner at which half of the binding sites on the other are occupied at equilibrium, for simple one-to-one binding. As to `C[C@H](CCCC(C)(C)O)[C@H]1CC[C@H]2[C@@H]3CC=C4C[C@@H](O)CC[C@]4(C)[C@H]3CC[C@]12C` [Compound 25-OHC, 25-hydroxycholesterol], in assay [1] (read-out: Kd of [3H]-25-hydroxycholesterol, ORP4L, direct binding), the Kd is 54 ± 23 nM. Further, the “effect on OSBP1 levels” value in assay [2] (10 μM) was “no effect; also recorded: did not reduce”. Besides, the “suppression of OSBP1 level reduction caused by 2” value in assay [2] (25-OHC (10 M or 20 M) with 2 (1 nM)) is “significantly suppressed”.
On to `COc1ccc(C(=O)O[C@H]2[C@H](O[C@@H]3[C@@H](OC(C)=O)[C@H](O[C@H]4C[C@H]5[C@@H]6CC=C7C[C@@H](O)CC[C@]7(C)[C@H]6CC[C@]5(C)[C@@]4(O)[C@H](C)C(=O)CCC(C)C)OC[C@@H]3O)OC[C@@H](O)[C@@H]2O)cc1` [OSW-1], for which the Ki in assay [1] turned out to be 54 ± 11 nM. Further, the “reduction in OSBP1 protein levels” value in assay [2] (10 nM) was “approximately 75%”. Further, the “antiproliferative activity in NPC1−/− (M12) CHO cells compared to wt CHO cells” value in assay [3] is given as “no change”. For the same compound, the “reduction in antiproliferative activity, OSBP1(V582M) vs wt OSBP1” value (“reduction in antiproliferative activity” for short) in assay [4] is “did not affect”.
For `C[C@@H]1[C@]2(O[C@H]3C=C4[C@@H]5CC[C@H]6Cc7nc8c(nc7C[C@]6(C)[C@H]5C[C@@H](O)[C@]4(C)[C@]31O)C[C@@H]1CC[C@H]3C4=CC[C@@H]5[C@H](C)[C@@]6(OC[C@]45C(=O)C[C@@H]3[C@@]1(C)C8)OC(C)(C)C[C@H]6O)O[C@](C)(CO)C[C@H]2O` [cephalostatin 1, Cephalostatin 1], in assay [1], the Ki amounted to 78 ± 15 nM. Also, in assay [2] (50 nM), the “reduction in OSBP1 protein levels” value is given as “approximately 75%”. Further, the “antiproliferative activity in NPC1−/− (M12) CHO cells compared to wt CHO cells” value in assay [3] is listed as “no change”. In assay [4], the “reduction in antiproliferative activity” value is 9.4 fold.
Consider schweinfurthin A, for which, in assay [1], the “fold lower affinity for ORP4L than for OSBP1” value is listed as “approximately 40 fold” and the Ki stood at 2600 ± 570 nM. In addition, in assay [1] (listed as 4a), the “fold lower affinity for ORP4L than for OSBP1” value is around 40 fold. In assay [2] (5 μM with 10 nM of 2), the “suppression of OSBP1 level reduction caused by 2” value is listed as “completely suppressed”. Also, the “effect on OSBP1 levels, compound alone” value in assay [2] (concentration not given) is “no effect”. The “antiproliferative activity in NPC1−/− (M12) CHO cells compared to wt CHO cells” value in assay [3] is given as “no change”. In addition, in assay [4], the “reduction in antiproliferative activity” value was “did not affect”.
